From ChEMBL document CHEMBL1129925, “Synthesis and antiviral evaluation of 4-hydroxymethyl-2, 3-dideoxy-3-thianucleosides and their cyclic monophosphates” (Bioorg Med Chem Lett, 1997)
The source made the active and inactive calls. The rule behind the calls is not given here.

Assays:
CD-4+ (A 3.01) [1] = assay: Antiviral activity in CD-4+ (A 3.01) cell line expressed as IC50; format: functional, cell-based
CD-4+ (A 3.01) [2] = assay: Antiviral activity in CD-4+ (A 3.01) cell line expressed as CC50; format: functional
MT4 [3] = assay: Antiviral activity in MT-4 cells expressed as IC50; format: functional, cell-based, Homo sapiens
MT4 [4] = assay: Antiviral activity in MT-4 cells expressed as CC50; format: functional; settings: Homo sapiens
CEM-SS = assay: Tested for anti-HIV activity in CEM-SS cell line; Inactive; format: functional, cell-based; settings: Homo sapiens
[5] = Antiviral activity in PBM cells expressed as IC50; format: functional, cell-based, Homo sapiens
[6] = Antiviral activity in PBM cells expressed as CC50; format: functional; settings: Homo sapiens, PBMC
CCRF-CEM [7] = assay: Antiviral activity in CEM cells expressed as CC50; format: functional; settings: Homo sapiens
H9 = assay: Antiviral activity in H9 cells expressed as IC50; format: functional, cell-based; settings: Homo sapiens
[8] = Antiviral activity in PBM cells; format: functional, cell-based; settings: Homo sapiens, PBMC
CCRF-CEM [9] = assay: Cytotoxicity against CEM cells; format: functional; settings: Homo sapiens
MT4 [10] = assay: Antiviral activity in MT-4 cells; format: functional, cell-based; settings: Homo sapiens
MT4 [11] = assay: Cytotoxicity against MT-4 cells; format: functional; settings: Homo sapiens
[12] = Cytotoxicity against PBM cells; format: functional; settings: Homo sapiens, PBMC

Cc1cn([C@H]2C[C@H](O)[C@](CO)(N=[N+]=[N-])O2)c(=O)[nH]c1=O
IC50 (CD-4+ (A 3.01) [1]): 10 nM | CC50 (CD-4+ (A 3.01) [2]): 8 µM

Nc1ccn([C@@H]2CS[C@H](CO)O2)c(=O)n1 (racemic) [LAMIVUDINE]
IC50 (MT4 [3]; Homo sapiens, MT4): 370 nM | CC50 (MT4 [4]): 405 µM

Nc1ccn(C2CSC3(COP(=O)(O)OC3)O2)c(=O)n1 (centres undefined)
Anti-HIV activity (CEM-SS): inactive

Nc1ccn([C@@H]2CS[C@H](CO)O2)c(=O)n1 (stereo in doubt; (+)) [LAMIVUDINE]
IC50 [5]: 210 nM | CC50 [6]: > 100 µM

Nc1ccn([C@@H]2CS[C@H](CO)O2)c(=O)n1 (stereo in doubt; (-)) [LAMIVUDINE]
IC50 (MT4 [3]; mt4): 610 nM | IC50 [5]: 2 nM | CC50 (CCRF-CEM [7]): 363 µM

Nc1ccn(C2CC(CO)C(CO)O2)c(=O)n1 (centres undefined)
IC50 (H9): 10 nM

Cc1cn(C2CSC(CO)(CO)O2)c(=O)[nH]c1=O (centres undefined)
Anti-HIV activity (CEM-SS): inactive

Nc1ccn(C2CSC(CO)(CO)O2)c(=O)n1 (centres undefined)
Anti-HIV activity (CEM-SS): inactive

Cc1cn(C2CSC3(COP(=O)(O)OC3)O2)c(=O)[nH]c1=O (centres undefined)
Anti-HIV activity (CEM-SS): inactive

Nc1ccn([C@@H]2CS[C@H](CO)O2)c(=O)n1 (single isomer, unassigned) [LAMIVUDINE]
IC50 [8]: 210 nM | CC50 (CCRF-CEM [9]): 363 µM | IC50 (MT4 [10]): 370 nM | CC50 (MT4 [11]): 407 µM | CC50 [12]: > 100 µM
